Experimental data taken from ChEMBL document CHEMBL4257544, “Synthesis and biological evaluation of novel asymmetric naphthalene diimide derivatives as anticancer agents depending on ROS generation” (Medchemcomm, 2018).
The source made the active and inactive calls. The rule behind the calls is not given here.

Assays:
SMMC-7721 [1] = assay: Induction of apoptosis in human SMMC7721 cells assessed as decrease in Bcl2 protein expression at 1 to 3 uM after 24 hrs by Western blot analysis; assay type: functional, cell-based
SMMC-7721 [2] = assay: Cytotoxicity against human SMMC7721 cells assessed as reduction in cell volume after 24 hrs; assay type: functional, cell-based
HepG2 [3] = assay: Induction of apoptosis in human HepG2 cells after 24 hrs by Annexin V/propidium iodide staining based flow cytometry; assay type: functional, cell-based
HepG2 [4] = assay: Cytotoxicity against human HepG2 cells assessed as reduction in cell volume after 24 hrs; assay type: functional, cell-based
SMMC-7721 [5] = assay: Induction of ROS generation in human SMMC7721 cells at 1 to 3 uM after 24 hrs by DCFH-DA staining based HCS analysis; assay type: functional, cell-based
HepG2 [6] = assay: Induction of autophagy in human HepG2 cells assessed as vacuolization after 12 hrs; assay type: functional, cell-based
HepG2 [7] = assay: Cytotoxicity against human HepG2 cells assessed as reduction in cell viability in presence of autophagy inhibitor 3-MA by MTT assay; assay type: functional, cell-based
SMMC-7721 [8] = assay: Induction of apoptosis in human SMMC7721 cells after 24 hrs by acridine orange/ethidium bromide and Hoechst 33342 staining based HCS analysis; assay type: functional, cell-based
HepG2 [9] = assay: Induction of apoptosis in human HepG2 cells assessed as increase in cleaved PARP1 protein expression treated at 1 hr post antioxidant alpha-tocopherol addition and measured after 24 hrs by Western blot analysis; assay type: functional, cell-based
SMMC-7721 [10] = assay: Cytotoxicity against human SMMC7721 cells assessed as morphological changes treated at 1 hr post antioxidant alpha-tocopherol addition and measured after 24 hrs; assay type: functional, cell-based
HepG2 [11] = assay: Induction of apoptosis in human HepG2 cells treated at 1 hr post antioxidant alpha-tocopherol addition and measured after 24 hrs by Annexin V/propidium iodide staining based flow cytometry; assay type: functional, cell-based
HepG2 [12] = assay: Downregulation of beta-catenin protein expression in human HepG2 cells at 1 to 3 uM after 24 hrs by Western blot analysis; assay type: functional, cell-based
SMMC-7721 [13] = assay: Induction of ROS generation in human SMMC7721 cells at 1 to 3 uM after 24 hrs in presence of antioxidant alpha-tocopherol by DCFH-DA staining based HCS analysis; assay type: functional, cell-based
MCF7 = assay: Cytotoxicity against human MCF7 cells after 48 hrs by MTT assay; assay type: functional, cell-based; conditions: MCF7, 48 h
SMMC-7721 [14] = assay: Cytotoxicity against human SMMC7721 cells assessed as cytoplasm shrinkage after 24 hrs; assay type: functional, cell-based
SMMC-7721 [15] = assay: Antimigratory activity against human SMMC7721 cells after 24 hrs by scratch wound healing assay; assay type: functional, cell-based
HepG2 [16] = assay: Induction of autophagy in human HepG2 cells assessed as increase in BECN1 level at 1 to 3 uM by Western blot analysis; assay type: functional, cell-based
HepG2 [17] = assay: Antimigratory activity against human HepG2 cells after 24 hrs by scratch wound healing assay; assay type: functional, cell-based
HepG2 [18] = assay: Induction of apoptosis in human HepG2 cells assessed as decrease in Bcl2 protein expression at 1 to 3 uM after 24 hrs by Western blot analysis; assay type: functional, cell-based
HepG2 [19] = assay: Antimigratory activity against human HepG2 cells treated at 1 hr post antioxidant alpha-tocopherol addition and measured after 24 hrs by scratch wound healing assay; assay type: functional, cell-based
HepG2 [20] = assay: Cytotoxicity against human HepG2 cells assessed as morphological changes treated at 1 hr post antioxidant alpha-tocopherol addition and measured after 24 hrs; assay type: functional, cell-based
HepG2 [21] = assay: Cytotoxicity against human HepG2 cells assessed as reduction in cell viability treated at 1 hr post antioxidant alpha-tocopherol addition by MTT assay; assay type: functional, cell-based
SMMC-7721 [22] = assay: Potency index, ratio of amonafide IC50 to compound IC50 for cytotoxicity against human SMMC7721 cells; assay type: functional
SMMC-7721 [23] = assay: Induction of autophagy in human SMMC7721 cells assessed as increase in LC3-2 level by Western blot analysis; assay type: functional, cell-based
SMMC-7721 [24] = assay: Induction of apoptosis in human SMMC7721 cells treated at 1 hr post antioxidant alpha-tocopherol addition and measured after 24 hrs by Annexin V/propidium iodide staining based flow cytometry; assay type: functional, cell-based
SMMC-7721 [25] = assay: Cytotoxicity against human SMMC7721 cells assessed as reduction in cell viability in presence of autophagy inhibitor 3-MA by MTT assay; assay type: functional, cell-based
SMMC-7721 [26] = assay: Cytotoxicity against human SMMC7721 cells after 48 hrs by MTT assay; assay type: functional, cell-based; conditions: SMMC-7721, 48 h
HepG2 [27] = assay: Antimigratory activity against human HepG2 cells at 1 to 3 uM after 24 hrs by crystal violet staining based transwell migration assay; assay type: functional, cell-based

## CCCCN1C(=O)c2ccc3c4c(ccc(c24)C1=O)C(=O)N(CCCN(C)C)C3=O
SMMC-7721 [1]
  Activity: Active
SMMC-7721 [2]
  Activity: Active
HepG2 [3]
  Activity: Dose-dependent effect
HepG2 [4]
  Activity: Active
SMMC-7721 [5]
  Activity: Active
HepG2 [6]
  Activity: Active
HepG2 [7]
  Activity: inactive
SMMC-7721 [8]
  Activity: Dose-dependent effect
HepG2 [9]
  Activity: inactive
SMMC-7721 [10]
  Activity: inactive
HepG2 [11]
  Activity: inactive
HepG2 [12]
  Activity: Active
SMMC-7721 [13]
  Activity: inactive
MCF7
  IC50: 5.15 µM
SMMC-7721 [14]
  Activity: Active
SMMC-7721 [15]
  Activity: Dose-dependent effect
HepG2 [16]
  Activity: Active
HepG2 [17]
  Activity: Dose-dependent effect
HepG2 [18]
  Activity: Active
HepG2 [19]
  Activity: inactive
HepG2 [20]
  Activity: inactive
HepG2 [21]
  Activity: inactive
SMMC-7721 [22]
  Ratio IC50: 5
SMMC-7721 [23]
  Activity: Dose-dependent effect
SMMC-7721 [24]
  Activity: inactive
SMMC-7721 [25]
  Activity: inactive
SMMC-7721 [26]
  IC50: 1.7 µM
HepG2 [27]
  Activity: Active
